Test results reported in US4250176A, “Piperazine derivatives” (priority 1979, dated 1981).
Values after ≈ are worked out from the molar mass of the structure shown. Where a name gives a salt, the structure may show the parent alone. Read-outs that look alike come from different tables or passages of the source.

Assays:
[1] = system: Guinea pigs sensitized to ovalbumin (anaphylactic shock); experiment: Anaphylaxis in guinea pigs: protection against death after ovalbumin challenge (survival); assay type: in vivo, guinea pig; conditions: Cavia porcellus, estimated ED50, oral, protection against death after i.v. 0.6 mg ovalbumin, read-out: Anaphylaxis in guinea pigs oral effective dose in mg/kg: Survival
Method: The anti-anaphylactic and antihistaminic effects of the subject compounds (I) and salts thereof are studied "in vivo" in guinea pigs.
(§1) Guinea pigs, weighing between 400 and 500 g, are sensitized to ovalbumin by subplantar (s.p.) injection of 0.05 ml of antiserum in the left hind paw. The animals are then starved and orally treated, 24 hours after the sensitization, with saline (=control animals) or a particular dose of the compound under investigation.
The histamine injection (at a dose of 50 μg) was given s.p. in the right hind paw 2 hours after the oral pretreatment with the compound. The diameters of both hind paws are first measured before the histamine injection is given and again 10 minutes thereafter. The animals are challenged intravenously with 0.6 mg of ovalbumin 30 minutes after the histamine injection. All control animals develop typical primary anaphylactic shock symptoms (coughing, difficult breathing, convulsions) and 85% of these control animals die within 15 minutes after the ovalbumin injection. Protection against death is used as the criterion for possible drug effects and the estimated ED50 -value, i.e. the oral dose whereby the protection is observed in 50% of the guinea pigs, is listed in the tables below.

[2] = system: Guinea-pig ileum strips, histamine-induced contraction; experiment: Anti-histamine activity in "vitro": histamine-induced spasms of guinea-pig ileum strips; assay type: cell-based; conditions: Cavia porcellus, 5 min, histamine 0.5 mg/liter, 5 minutes incubation, concentration giving significant inhibition (50%) of the contraction
Method: The histamine--(0.5 mg/liter) induced spasms are recorded Kymographically with an isotonic lever giving a 5-fold magnification.

[3] = system: histamine paw oedema in guinea pigs; experiment: Histamine paw oedema in guinea pigs; assay type: in vivo, guinea pig; conditions: Cavia porcellus, oral dose giving paw reaction below 10 units 10 minutes after 50 μg histamine s.p., 2 hours after dosing, read-out: Anaphylaxis in guinea pigs oral effective dose in mg/kg: Histamine oedema
Method: as §1, with “investigation. The histamine injection (at a dose of 50 μg) was given s.p. in the right hind paw 2 hours after the oral pretreatment with the compound.” for “investigation.”

[4] = Table I-a, read-out: Histamine in "vitro" (ileum) effective conc.
[5] = Table I-d, read-out: Histamine in "vitro" (ileum) effective dose

Structure (SMILES) | ED50 ([1]; Table I-a) | IC50 [2, 4] | minimal effective dose ([3]; Table I-a) | further results
O=c1[nH]c2ccccc2n1CCCN1CCN(C(c2ccccc2)c2ccc(Br)cc2)CC1 (stereo not drawn) [1-[3-{4-[(4-bromophenyl)phenylmethyl]-1-piperazinyl}propyl]-1,3-dihydro-2H-benzimidazol-2-one] | < 2.5 mg/kg | 0.16 µg/mL (≈ 0.317 µM) | < 2.5 mg/kg | –
Cc1ccc(C(c2ccc(F)cc2)N2CCN(CCCn3c(=O)[nH]c4ccccc43)CC2)cc1 (stereo not drawn) [1-[3-{4-[(4-fluorophenyl)-(4-methylphenyl)methyl]-1-piperazinyl}propyl]-1,3-dihydro-2H-benzimidazol-2-one] | < 2.5 mg/kg | 0.16 µg/mL (≈ 0.349 µM) | < 2.5 mg/kg | –
O=c1[nH]c2ccccc2n1CCCN1CCN(C(c2ccc(Cl)cc2)c2ccc(Cl)cc2)CC1 [1-[3-{4-[bis(4-chlorophenyl)methyl]-1-piperazinyl}propyl]-1,3-dihydro-2H-benzimidazol-2-one] | < 2.5 mg/kg | 0.16 µg/mL (≈ 0.323 µM) | < 2.5 mg/kg | –
O=c1[nH]c2ccccc2n1CCCN1CCC(OC(c2ccc(F)cc2)c2ccc(F)cc2)CC1 [1-[3-{4-[bis(4-fluorophenyl)methoxy]-1-piperidinyl}propyl]-1,3-dihydro-2H-benzimidazol-2-one hydrochloride.hemihydrate] | – | – | – | ED50 ([1]; Table I-d): 0.63 mg/kg; IC50 [2, 5]: 0.0025 µg/mL; minimal effective dose ([3]; Table I-d): 0.63 mg/kg
CC(CN1CCN(C(c2ccc(F)cc2)c2ccc(F)cc2)CC1)Cn1c(=O)[nH]c2ccccc21 (stereo not drawn) [1-[3-{4-[bis(4-fluorophenyl)methyl]-1-piperazinyl}-2-methylpropyl]-1,3-dihydro-2H-benzimidazol-2-one] | 1.25 mg/kg | 0.02 µg/mL (≈ 0.042 µM) | 1.25 mg/kg | –
CC(CN1CCN(C(c2ccc(F)cc2)c2ccc(F)cc2)CC1)Cn1cnc2ccccc21 (stereo not drawn) [1-[3-{4-[bis(4-fluorophenyl)methyl]-1-piperazinyl}-2-methylpropyl]-1H-benzimidazole trihydrochloride.hemihydrate] | – | – | – | ED50 ([1]; Table I-b): 0.63 mg/kg; IC50 ([2]; Table I-b, read-out: Histamine in "vitro" (ileum) effective conc.): 0.02 µg/mL; minimal effective dose ([3]; Table I-b): 1.25 mg/kg
O=c1[nH]c2ccccc2n1CCCN1CCN(C(c2ccc(F)cc2)c2ccc(F)cc2)CC1 [1-[3-{4-[bis(4-fluorophenyl)methyl]-1-piperazinyl}propyl]-1,3-dihydro-2H-benzimidazol-2-one] | 0.31 mg/kg | 0.01 µg/mL (≈ 0.0216 µM) | 0.16 mg/kg | –
O=c1[nH]c2cc(Cl)ccc2n1CCCN1CCN(C(c2ccc(F)cc2)c2ccc(F)cc2)CC1 [1-[3-{4-[bis(4-fluorophenyl)methyl]-1-piperazinyl}propyl]-5-chloro-1,3-dihydro-2H-benzimidazol-2-one] | 1.25 mg/kg | 0.04 µg/mL (≈ 0.0805 µM) | 1.25 mg/kg | –
O.O=c1[nH]c2ccc(Cl)cc2n1CCCN1CCN(C(c2ccc(F)cc2)c2ccc(F)cc2)CC1 [1-[3-{4-[bis(4-fluorophenyl)methyl]-1-piperazinyl}propyl]-6-chloro-1,3-dihydro-2H-benzimidazol-2-one hydrate] | 0.63 mg/kg | 0.02 µg/mL | 1.25 mg/kg | –
O=c1[nH]c2ccccc2n1CCCN1CCN(C(c2ccccc2)c2cccc(Cl)c2)CC1 (stereo not drawn) [1-[3-{4-[α-(3-chlorophenyl-α-phenylmethyl]-1-piperazinyl}propyl]-1,3-dihydro-2H-benzimidazol-2-one] | 0.63 mg/kg | 0.01 µg/mL (≈ 0.0217 µM) | 1.25 mg/kg | –
O=c1[nH]c2ccccc2n1CCCN1CCN(C(c2ccc(Cl)cc2)c2ccccc2F)CC1 (stereo not drawn) [1-[3-{4-[α-(4-chlorophenyl)-α-(2-fluorophenyl)]-1-piperazinyl}propyl]-1,3-dihydro-2H-benzimidazol-2-one] | 0.31 mg/kg | 0.02 µg/mL (≈ 0.0418 µM) | 1.25 mg/kg | –
O=c1[nH]c2ccccc2n1CCCN1CCN(C(c2ccccc2)c2ccc(Cl)cc2)CC1 (stereo not drawn) [1-[3-{4-[α-(4-chlorophenyl)-α-phenylmethyl]-1-piperazinyl}propyl]-1,3-dihydro-2H-benzimidazol-2-one] | 1.25 mg/kg | 0.01 µg/mL (≈ 0.0217 µM) | 0.63 mg/kg | –
O=c1[nH]c2ccccc2n1CCCN1CCN(C(c2ccccc2)c2ccc(F)cc2)CC1 (stereo not drawn) [1-[3-{4-[α-(4-fluorophenyl)-α-phenylmethyl]-1-piperazinyl}propyl]-1,3-dihydro-2H-benzimidazol-2-one] | 0.31 mg/kg | 0.01 µg/mL (≈ 0.0225 µM) | 0.31 mg/kg | –
O=c1[nH]c2ccccc2n1CCCCN1CCN(C(c2ccc(F)cc2)c2ccc(F)cc2)CC1 [1-[4-{4-[bis(4-fluorophenyl)methyl]-1-piperazinyl}-butyl]-1,3-dihydro-2H-benzimidazol-2-one dihydrochloride.hydrate.hemiethanolate] | 0.16 mg/kg | 0.01 µg/mL | 0.31 mg/kg | –
O=c1[nH]c2ccccc2n1CCCCCN1CCN(C(c2ccc(F)cc2)c2ccc(F)cc2)CC1 [1-[5-{4-[bis(4-fluorophenyl)-methyl]-1-piperazinyl}pentyl]-1,3-dihydro-2H-benzimidazol-2-one dihydrochloride.hydrate] | 1.25 mg/kg | 0.01 µg/mL | 2.5 mg/kg | –
CC(=O)n1c(=O)n(CCCN2CCN(C(c3ccccc3)c3ccccc3)CC2)c2ccccc21 [1-acetyl-3-{3-[4-(diphenylmethyl)-1-piperazinyl]propyl}-1,3-dihydro-2H-benzimidazol-2-one] | 0.1 mg/kg | 0.005 µg/mL (≈ 0.0107 µM) | 0.31 mg/kg | –
Cl.O=c1[nH]c2ccccc2n1CCN1CCC(OC(c2ccccc2)c2ccccc2)CC1 [1-{2-[4-(diphenylmethoxy)-1-piperidinyl]ethyl}-1,3-dihydro-2H-benzimidazol-2-one hydrochloride] | – | – | – | ED50 ([1]; Table I-d): 0.31 mg/kg; IC50 [2, 5]: 0.0025 µg/mL; minimal effective dose ([3]; Table I-d): 0.16 mg/kg
O=c1[nH]c2cc(C(F)(F)F)ccc2n1CCN1CCN(C(c2ccccc2)c2ccccc2)CC1 [1-{2-[4-(diphenylmethyl)-1-piperazinyl]ethyl}-1,3-dihydro-5-(trifluoromethyl)-2H-benzimidazol-2-one] | 0.31 mg/kg | 0.02 µg/mL (≈ 0.0416 µM) | 1.25 mg/kg | –
Cc1ccc2c(c1)[nH]c(=O)n2CCN1CCN(C(c2ccccc2)c2ccccc2)CC1 [1-{2-[4-(diphenylmethyl)-1-piperazinyl]ethyl}-1,3-dihydro-5-methyl-2H-benzimidazol-2-one] | 1.25 mg/kg | 0.01 µg/mL (≈ 0.0234 µM) | 1.25 mg/kg | –
O=c1[nH]c2ccccc2n1CCCN1CCC(OC(c2ccccc2)c2ccccc2)CC1 [1-{3-[4-(diphenylmethoxy)-1-piperidinyl]-propyl}-1,3-dihydro-2H-benzimidazol-2-one] | – | – | – | ED50 ([1]; Table I-d): 0.63 mg/kg; IC50 [2, 5]: 0.0025 µg/mL (≈ 0.00566 µM); minimal effective dose ([3]; Table I-d): 1.25 mg/kg
c1ccc(C(OC2CCN(CCCn3cnc4ccccc43)CC2)c2ccccc2)cc1 [1-{3-[4-(diphenylmethoxy)-1-piperidinyl]propyl}-1H-benzimidazole] | – | – | – | ED50 ([1]; Table I-d): 0.16 mg/kg; IC50 [2, 5]: 0.0025 µg/mL (≈ 0.00587 µM); minimal effective dose ([3]; Table I-d): 0.16 mg/kg
C=C(C)n1c(=O)n(CCCN2CCN(C(c3ccccc3)c3ccccc3)CC2)c2ccccc21 [1-{3-[4-(diphenylmethyl)-1-piperazinyl]propyl}-1,3-dihydro-3-(1-methylethenyl)-2H-benzimidazol-2-one] | 0.16 mg/kg | 0.01 µg/mL (≈ 0.0214 µM) | 0.31 mg/kg | –
O=c1n(CO)c2ccccc2n1CCCN1CCN(C(c2ccccc2)c2ccccc2)CC1 [1-{3-[4-(diphenylmethyl)-1-piperazinyl]propyl}-1,3-dihydro-3-(hydroxymethyl)-2H-benzimidazol-2-one] | 0.31 mg/kg | 0.01 µg/mL (≈ 0.0219 µM) | 0.31 mg/kg | –
Cl.Cl.O=c1n(CCCN2CCN(C(c3ccccc3)c3ccccc3)CC2)c2ccccc2n1Cc1ccccc1 [1-{3-[4-(diphenylmethyl)-1-piperazinyl]propyl}-1,3-dihydro-3-(phenylmethyl)-2H-benzimidazol-2-one dihydrochloride] | 1.25 mg/kg | 0.16 µg/mL | 1.25 mg/kg | –
